Source: patent US11312712B2, “Azabenzimidazoles and their use as AMPA receptor modulators” (Janssen Pharmaceutica NV, priority 2015, dated 2022)

Target: GluA1o-γ8 (GRIA1o-CACNG8 fusion construct) (Homo sapiens (Human), UniProt P42261+Q8WXS5)
Assay: Calcium flux assay (FLIPR), inhibition of TARP γ8 dependent AMPA receptor activity
Assay type: cell-based
Conditions: GluA1o-γ8 (GRIA1o-CACNG8 fusion) in HEK293 cells, calcium flux after 15 μM glutamate
Summary of the method: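 Glutamate (15 μM) was added to a stable HEK293 line carrying the GluA1o–γ8 fusion, which had been preincubated with compound and calcium dye in HEPES buffer, pH 7.4. Normalized FLIPR fluorescence (no compound vs 10 μM CP465022) was fitted with four parameters; pIC50 is the midpoint's negative log.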

GluA1o-γ8 (GRIA1o-CACNG8 fusion construct), sequence (P42261 other isoform, or with tags, fused parts or gaps): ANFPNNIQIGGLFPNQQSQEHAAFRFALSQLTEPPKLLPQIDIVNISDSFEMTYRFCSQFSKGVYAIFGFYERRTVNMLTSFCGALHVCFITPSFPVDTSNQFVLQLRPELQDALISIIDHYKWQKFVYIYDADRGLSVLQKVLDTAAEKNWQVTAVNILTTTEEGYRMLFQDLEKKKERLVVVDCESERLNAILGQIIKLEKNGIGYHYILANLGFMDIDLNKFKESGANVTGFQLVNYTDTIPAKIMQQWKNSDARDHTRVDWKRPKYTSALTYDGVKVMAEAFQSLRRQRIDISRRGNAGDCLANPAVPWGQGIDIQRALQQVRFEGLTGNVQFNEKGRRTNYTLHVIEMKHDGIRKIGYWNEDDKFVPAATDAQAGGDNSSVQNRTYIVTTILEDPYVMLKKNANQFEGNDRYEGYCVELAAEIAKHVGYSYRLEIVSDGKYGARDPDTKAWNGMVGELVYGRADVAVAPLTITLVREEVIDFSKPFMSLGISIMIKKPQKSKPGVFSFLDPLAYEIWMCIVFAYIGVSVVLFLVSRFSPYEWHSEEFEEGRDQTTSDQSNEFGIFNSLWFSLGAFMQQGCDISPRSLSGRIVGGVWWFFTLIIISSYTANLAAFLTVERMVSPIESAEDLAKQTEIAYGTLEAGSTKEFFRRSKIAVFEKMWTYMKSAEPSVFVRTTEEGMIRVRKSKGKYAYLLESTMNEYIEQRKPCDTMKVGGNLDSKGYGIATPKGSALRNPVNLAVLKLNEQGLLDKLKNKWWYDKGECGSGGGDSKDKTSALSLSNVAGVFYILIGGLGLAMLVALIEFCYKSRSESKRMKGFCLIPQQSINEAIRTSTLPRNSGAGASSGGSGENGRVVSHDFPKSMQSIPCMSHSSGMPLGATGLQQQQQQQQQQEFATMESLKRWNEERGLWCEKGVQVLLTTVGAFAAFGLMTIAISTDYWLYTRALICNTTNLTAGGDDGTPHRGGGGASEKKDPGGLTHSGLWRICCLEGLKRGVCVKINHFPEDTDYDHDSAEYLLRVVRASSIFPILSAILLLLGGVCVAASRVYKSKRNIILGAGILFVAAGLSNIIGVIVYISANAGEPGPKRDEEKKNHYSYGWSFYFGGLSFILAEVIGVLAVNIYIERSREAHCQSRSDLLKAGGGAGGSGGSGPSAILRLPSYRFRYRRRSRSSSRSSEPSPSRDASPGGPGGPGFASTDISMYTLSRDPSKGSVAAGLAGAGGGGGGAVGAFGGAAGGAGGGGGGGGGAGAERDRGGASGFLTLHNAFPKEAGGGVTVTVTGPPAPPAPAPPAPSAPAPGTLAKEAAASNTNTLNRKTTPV

| SMILES | IC50 |
| --- | --- |
| O=C(Nc1ccccc1)c1nc2ccc(C(F)(F)F)nc2n1-c1ccc2[nH]ncc2c1 [Example 85, 3-(1H-Indazol-5-yl)-N-phenyl-5-(trifluoromethyl)imidazo[4,5-b]pyridine-2-carboxamide] | 79.4 nM |
| Fc1ccc(-c2nc3ccc(C4CC4)nc3n2-c2ccc3[nH]ncc3c2)cc1 [Example 86, 5-Cyclopropyl-2-(4-fluorophenyl)-3-(1H-indazol-5-yl)imidazo[4,5-b]pyridine] | 0.794 nM |
| Cc1ccc2nc(C3CC3)n(-c3ccc4c(c3)CC(=O)N4)c2n1 [Example 87, 5-(2-Cyclopropyl-5-methyl-imidazo[4,5-b]pyridin-3-yl)indolin-2-one] | 79.4 nM |
| O=C1Cc2cc(-n3c(C(F)(F)F)nc4ccc(C(F)(F)F)nc43)ccc2N1 [Example 88, 5-[2,5-Bis(trifluoromethyl)imidazo[4,5-b]pyridin-3-yl]indolin-2-one] | 1.58 nM |
| FC(F)(F)c1ccc2nc(C(F)(F)F)n(-c3ccc4[nH]ncc4c3)c2n1 [Example 89, 3-(1H-Indazol-5-yl)-2,5-bis(trifluoromethyl)imidazo[4,5-b]pyridine] | 1.26 nM |
| FC(F)c1nc2ccc(C(F)(F)F)nc2n1-c1ccc2[nH]ncc2c1 [Example 90, 2-(Difluoromethyl)-3-(1H-indazol-5-yl)-5-(trifluoromethyl)imidazo[4,5-b]pyridine] | 3.16 nM |
| FC(F)(F)c1ccc2nc(-c3cccs3)n(-c3ccc4[nH]ncc4c3)c2n1 [Example 91, 3-(1H-Indazol-5-yl)-2-(2-thienyl)-5-(trifluoromethyl)imidazo[4,5-b]pyridine] | 3.98 nM |
| FC(F)(F)c1ccc2nc(-c3ccco3)n(-c3ccc4[nH]ncc4c3)c2n1 [Example 92, 2-(2-Furyl)-3-(1H-indazol-5-yl)-5-(trifluoromethyl)imidazo[4,5-b]pyridine] | 5.01 nM |
| CC(F)(F)c1nc2ccc(C(F)(F)F)nc2n1-c1ccc2c(c1)CC(=O)N2 [Example 93, 5-[2-(1,1-Difluoroethyl)-5-(trifluoromethyl)imidazo[4,5-b]pyridin-3-yl]indolin-2-one] | 7.94 nM |
| O=C1Cc2cc(-n3c(C(F)F)nc4ccc(C(F)(F)F)nc43)ccc2N1 [Example 94, 5-[2-(Difluoromethyl)-5-(trifluoromethyl)imidazo[4,5-b]pyridin-3-yl]indolin-2-one] | 50.1 nM |
| O=C1Cc2cc(-n3c(C4CC4)nc4ccc(Cl)nc43)ccc2N1 [Example 95, 5-(5-Chloro-2-cyclopropyl-imidazo[4,5-b]pyridin-3-yl)indolin-2-one] | 39.8 nM |
| CC(C)(C)Cc1nc2ccc(C(F)(F)F)nc2n1-c1ccc2c(c1)CC(=O)N2 [Example 97, 5-[2-(2,2-Dimethylpropyl)-5-(trifluoromethyl)imidazo[4,5-b]pyridin-3-yl]indolin-2-one] | 251 nM |
| Cc1nc2ccc(C(F)(F)F)nc2n1-c1ccc2[nH]ncc2c1 [Example 98, 3-(1H-Indazol-5-yl)-2-methyl-5-(trifluoromethyl)imidazo[4,5-b]pyridine] | 63.1 nM |
| CCc1nc2ccc(C(F)(F)F)nc2n1-c1ccc2c(c1)CC(=O)N2 [Example 99, 5-[2-Ethyl-5-(trifluoromethyl)imidazo[4,5-b]pyridin-3-yl]indolin-2-one] | 12.6 nM |
| CC(C)Cc1nc2ccc(C(F)(F)F)nc2n1-c1ccc2[nH]ncc2c1 [Example 101, 3-(1H-Indazol-5-yl)-2-isobutyl-5-(trifluoromethyl)imidazo[4,5-b]pyridine] | 25.1 nM |
| FC(F)(F)c1ccc2nc(C3CCC3)n(-c3ccc4[nH]ncc4c3)c2n1 [Example 103, 2-Cyclobutyl-3-(1H-indazol-5-yl)-5-(trifluoromethyl)imidazo[4,5-b]pyridine] | 1.58 nM |
| FC(F)(F)c1ccc2nc(C3CCCC3)n(-c3ccc4[nH]ncc4c3)c2n1 [Example 104, 2-Cyclopentyl-3-(1H-indazol-5-yl)-5-(trifluoromethyl)imidazo[4,5-b]pyridine] | 5.01 nM |
| CCc1nc2ccc(C(F)(F)F)nc2n1-c1ccc2[nH]ncc2c1 [Example 105, 2-Ethyl-3-(1H-indazol-5-yl)-5-(trifluoromethyl)imidazo[4,5-b]pyridine] | 7.94 nM |
| O=c1[nH]c2ccc(-n3c(C4CC4)nc4ccc(C(F)(F)F)nc43)cc2[nH]1 [Example 106, 5-[2-Cyclopropyl-5-(trifluoromethyl)imidazo[4,5-b]pyridin-3-yl]-1,3-dihydrobenzimidazol-2-one] | 2.51 nM |
| O=c1[nH]c2ccc(-n3c(C4CC4)nc4ccc(C(F)(F)F)nc43)cc2o1 [Example 107, 6-[2-Cyclopropyl-5-(trifluoromethyl)imidazo[4,5-b]pyridin-3-yl]-3H-1,3-benzoxazol-2-one] | 15.8 nM |
| CC(C)(C)c1nc2ccc(C(F)(F)F)nc2n1-c1ccc2[nH]ncc2c1 [Example 108, 2-tert-Butyl-3-(1H-indazol-5-yl)-5-(trifluoromethyl)imidazo[4,5-b]pyridine] | 20 nM |

| SMILES | IC50 |
| --- | --- |
| CC(C)c1nc2ccc(C(F)(F)F)nc2n1-c1ccc2[nH]ncc2c1 [Example 109, 3-(1H-Indazol-5-yl)-2-isopropyl-5-(trifluoromethyl)imidazo[4,5-b]pyridine] | 0.251 nM |
| Fc1ccc(-c2nc3ccc(C(F)(F)F)nc3n2-c2ccc3[nH]ncc3c2)cc1 [Example 110, 2-(4-Fluorophenyl)-3-(1H-indazol-5-yl)-5-(trifluoromethyl)imidazo[4,5-b]pyridine] | 0.316 nM |
| O=c1[nH]c2ccc(-n3c(-c4ccccc4)nc4ccc(O)nc43)cc2s1 [Example 111, 6-(5-Hydroxy-2-phenyl-imidazo[4,5-b]pyridin-3-yl)-3H-1,3-benzothiazol-2-one] | 15.8 nM |
| Fc1ccc(-c2nc3cccnc3n2-c2cnc3[nH]ncc3c2)cc1 [Example 112, 2-(4-Fluorophenyl)-3-(1H-pyrazolo[3,4-b]pyridin-5-yl)imidazo[4,5-b]pyridine] | 398 nM |
| FC(F)(F)Cc1nc2ccc(C(F)(F)F)nc2n1-c1ccc2[nH]ncc2c1 [Example 113, 3-(1H-Indazol-5-yl)-2-(2,2,2-trifluoroethyl)-5-(trifluoromethyl)imidazo[4,5-b]pyridine] | 251 nM |
| CCOc1nc2ccc(C(F)(F)F)nc2n1-c1ccc2[nH]ncc2c1 [Example 114, 2-Ethoxy-3-(1H-indazol-5-yl)-5-(trifluoromethyl)imidazo[4,5-b]pyridine] | 12.6 nM |
| OC1(c2nc3ccc(C(F)(F)F)nc3n2-c2ccc3[nH]ncc3c2)CC1 [Example 115, 1-[3-(1H-Indazol-5-yl)-5-(trifluoromethyl)imidazo[4,5-b]pyridin-2-yl]cyclopropanol] | 200 nM |
| CC(F)(F)c1nc2ccc(C(F)(F)F)nc2n1-c1ccc2[nH]ncc2c1 [Example 116, 2-(1,1-Difluoroethyl)-3-(1H-indazol-5-yl)-5-(trifluoromethyl)imidazo[4,5-b]pyridine] | 2 nM |
| CC(C)(C)c1ccc2nc(-c3ccc(F)cc3)n(-c3ccc4[nH]ncc4c3)c2n1 [Example 118, 5-tert-Butyl-2-(4-fluorophenyl)-3-(1H-indazol-5-yl)imidazo[4,5-b]pyridine] | 0.158 nM |
| CC(C)c1ccc2nc(C3CCC3)n(-c3ccc4[nH]ncc4c3)c2n1 [Example 119, 2-Cyclobutyl-3-(1H-indazol-5-yl)-5-isopropyl-imidazo[4,5-b]pyridine] | 0.0316 nM |
| CC(C)c1ccc2nc(-c3ccc(F)cc3)n(-c3ccc4[nH]ncc4c3)c2n1 [Example 120, 2-(4-Fluorophenyl)-3-(1H-indazol-5-yl)-5-isopropyl-imidazo[4,5-b]pyridine] | 0.0501 nM |
| Cc1cc(-c2nc3ccc(C(F)(F)F)nc3n2-c2ccc3[nH]ncc3c2)ccc1F [Example 121, 2-(4-Fluoro-3-methyl-phenyl)-3-(1H-indazol-5-yl)-5-(trifluoromethyl)imidazo[4,5-b]pyridine] | 0.501 nM |
| Cc1cccc(-c2nc3ccc(C(F)(F)F)nc3n2-c2ccc3[nH]ncc3c2)c1 [Example 122, 3-(1H-Indazol-5-yl)-2-(m-tolyl)-5-(trifluoromethyl)imidazo[4,5-b]pyridine] | 0.316 nM |
| Cc1ccc(-c2nc3ccc(C(F)(F)F)nc3n2-c2ccc3[nH]ncc3c2)cc1 [Example 123, 3-(1H-Indazol-5-yl)-2-(p-tolyl)-5-(trifluoromethyl)imidazo[4,5-b]pyridine] | 3.98 nM |
| FC(F)(F)c1ccc2nc(-c3ccncc3)n(-c3ccc4[nH]ncc4c3)c2n1 [Example 124, 3-(1H-Indazol-5-yl)-2-(4-pyridyl)-5-(trifluoromethyl)imidazo[4,5-b]pyridine] | 12.6 nM |
| FC(F)(F)c1nc2ccc(C3CC3)nc2n1-c1ccc2[nH]ncc2c1 [Example 125, 5-Cyclopropyl-3-(1H-indazol-5-yl)-2-(trifluoromethyl)imidazo[4,5-b]pyridine] | 0.794 nM |
| CN(C)C(=O)c1nc2ccc(C(F)(F)F)nc2n1-c1ccc2[nH]ncc2c1 [Example 126, 3-(1H-Indazol-5-yl)-N,N-dimethyl-5-(trifluoromethyl)imidazo[4,5-b]pyridine-2-carboxamide] | 794 nM |
| CNC(=O)c1nc2ccc(C(F)(F)F)nc2n1-c1ccc2[nH]ncc2c1 [Example 127, 3-(1H-Indazol-5-yl)-N-methyl-5-(trifluoromethyl)imidazo[4,5-b]pyridine-2-carboxamide] | 794 nM |
| O=C(NC1CC1)c1nc2ccc(C(F)(F)F)nc2n1-c1ccc2[nH]ncc2c1 [Example 128, N-Cyclopropyl-3-(1H-indazol-5-yl)-5-(trifluoromethyl)imidazo[4,5-b]pyridine-2-carboxamide] | 501 nM |
| COc1nc2ccc(C(F)(F)F)nc2n1-c1ccc2[nH]ncc2c1 [Example 129, 3-(1H-Indazol-5-yl)-2-methoxy-5-(trifluoromethyl)imidazo[4,5-b]pyridine] | 15.8 nM |
| CCNc1nc2ccc(C(F)(F)F)nc2n1-c1ccc2[nH]ncc2c1 [Example 130, N-Ethyl-3-(1H-indazol-5-yl)-5-(trifluoromethyl)imidazo[4,5-b]pyridin-2-amine] | 100 nM |
